Here are results for one molecule from US20050013869A1, “Sustained release formulation for carbamates and a method therefor” (priority 2003, published 2005).

The structures appear in SMILES notation.

For data set [1] the following is noted: K. Walter et al. (1995); cited from earlier work.
A short description of data set [2]: In vivo pharmacokinetic study after oral (intragastric) administration in rats. Conditions: rat, oral solution, 1 mg/kg. As for the experimental part:
Naked physostigmine solution (1 mg/kg) or physostigmine-loaded RG 502 microparticles suspension (10% drug loading) were fed intragastrically into the overnight-fasted rats (weight-280g) via a rigid dosing gavage needle into the posterior of the rat pharynx, directly into the stomach. Immediately before administration of the tablets and solutions, a 300 μL sample of blood was taken at what was t=0 hrs (pre-dose), through the exposed catheter. Subsequent samples were drawn from the catheter at intervals over a period of 48 hours after drug administration. After each withdrawal, an equal volume of 0.9% normal saline was injected back into the blood stream to minimize loss of body fluid. Water and food were available ad libitum in the metabolic cages. Each 300 μl volume of blood was collected in heparinised microcentrifuge tubes and centrifuged under 3000 g for 5 minutes at 4° C. to obtain the plasma. All plasma samples were stored at −70° C. in fresh heparinised microcentrifuge tubes. Physostigmine is extracted immediately from it prior to analysis by high performance liquid chromatography (HPLC) described by Zhao et al (2003) Journal of Chromatography B 784- 323-329). The WinNonlin® Version 3.2 (Pharsight Corporation, USA) was used to calculate the pharmacokinetic parameters based on the non-compartment model.

The conditions of data set [3]: in vitro medium, 37° C., cited from earlier work.

What is called Tmax is the time from dosing to the highest level. Broadly, the half-life is how long it takes for the measured level to halve. On to `CNC(=O)Oc1ccc2c(c1)[C@]1(C)CCN(C)[C@@H]1N2C` [physostigmine, Physostigmine], for which the elimination half-life in data set [1] was 12 to 40 min. Further, the Tmax in data set [2] (plasma) was 40.8 min. Besides, in data set [2] (plasma, read-out: AUC (hr*μg/mL), Mean), the AUC came out at 0.77 µg·h/mL. For the same molecule, the Cmax in data set [2] (plasma, read-out: Cmax (μg/mL), Mean) worked out at 0.57 µg/mL. In addition, the half-life in data set [2] (plasma, read-out: Half life (hr), Mean (converted)) was 1.16 h. In addition, in data set [2], the “Cl (mL/hr/kg), Mean” value was 998.86 mL/h/kg and the “Vd (mL/kg), Mean” value is 1584.37 mL/kg. Also, the physostigmine degraded entry in data set [3] (in 6 days) was “about 40%”. Moreover, the physostigmine degradation rate in data set [3] is 7 % per day.
